Calls of active or inactive are those of the source. No cut-off for these calls is given here.
Legend:
[1] = AUC (0 to 24 hrs) in dog; type: ADME, organism-based, Canis lupus familiaris; design: time < 24 hr; conditions: in vivo
Homo sapiens = species on record: Homo sapiens; test: Inhibition of sodium channel (unknown origin) at 10 uM at 1 and 4 Hz stimulation by patch clamp assay
Phosphodiesterase 4 = Phosphodiesterase 4 (Homo sapiens, UniProt P27815+Q08499+Q07343+Q08493); test: Inhibition of PDE4 (unknown origin); type: protein assay
hERG [2] = target: T1, hERG (Homo sapiens, UniProt Q12809); test: Inhibition of human ERG channel at 30 uM
T1 sequence (Q12809 whole entry): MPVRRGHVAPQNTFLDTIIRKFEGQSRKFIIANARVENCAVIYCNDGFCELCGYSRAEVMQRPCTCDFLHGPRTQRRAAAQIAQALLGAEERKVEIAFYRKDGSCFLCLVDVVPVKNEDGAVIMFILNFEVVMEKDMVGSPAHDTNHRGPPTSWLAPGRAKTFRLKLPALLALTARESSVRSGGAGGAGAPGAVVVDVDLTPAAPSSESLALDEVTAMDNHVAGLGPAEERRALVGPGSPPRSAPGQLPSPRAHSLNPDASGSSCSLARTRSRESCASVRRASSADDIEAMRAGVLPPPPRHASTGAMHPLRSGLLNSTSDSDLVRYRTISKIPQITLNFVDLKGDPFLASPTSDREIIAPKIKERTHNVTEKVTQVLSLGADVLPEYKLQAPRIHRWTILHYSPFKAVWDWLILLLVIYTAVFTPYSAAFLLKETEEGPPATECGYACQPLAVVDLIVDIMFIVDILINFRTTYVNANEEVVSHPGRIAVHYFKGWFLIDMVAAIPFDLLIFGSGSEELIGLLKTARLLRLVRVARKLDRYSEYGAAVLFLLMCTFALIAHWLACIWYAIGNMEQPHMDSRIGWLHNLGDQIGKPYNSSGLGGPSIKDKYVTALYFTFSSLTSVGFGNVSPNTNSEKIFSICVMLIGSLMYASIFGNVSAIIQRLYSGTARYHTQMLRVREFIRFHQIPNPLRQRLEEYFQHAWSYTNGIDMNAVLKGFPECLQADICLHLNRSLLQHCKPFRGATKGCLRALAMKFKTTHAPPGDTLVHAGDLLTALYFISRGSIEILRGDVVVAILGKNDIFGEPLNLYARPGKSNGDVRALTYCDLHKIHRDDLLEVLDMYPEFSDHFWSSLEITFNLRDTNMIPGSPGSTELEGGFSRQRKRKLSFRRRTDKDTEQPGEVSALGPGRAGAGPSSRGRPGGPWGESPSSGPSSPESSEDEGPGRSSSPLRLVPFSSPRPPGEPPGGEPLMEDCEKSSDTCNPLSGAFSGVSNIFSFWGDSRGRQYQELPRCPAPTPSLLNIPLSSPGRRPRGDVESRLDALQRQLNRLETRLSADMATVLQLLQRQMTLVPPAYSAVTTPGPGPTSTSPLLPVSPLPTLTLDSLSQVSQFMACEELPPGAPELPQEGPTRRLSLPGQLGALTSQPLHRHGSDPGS

[3] = Permeability of the compound in pH 7.4 solution by PAMPA method; type: physicochemical; conditions: read-out: permeability
Mus musculus [4] = test: Oral bioavailability in mouse at 10 mg/kg; type: ADME, organism-based; conditions: in vivo
[5] = Volume of distribution at steady state in dog at 0.2 mg/kg, iv and 0.2 mg/kg, po; type: ADME, organism-based, Canis lupus familiaris; conditions: in vivo, read-out: Vdss
[6] = target: T2, Tyrosine-protein kinase JAK1 (Homo sapiens, UniProt P23458); test: Binding affinity to JAK1 (unknown origin) assessed as dissociation constant
T2 sequence (P23458 whole entry): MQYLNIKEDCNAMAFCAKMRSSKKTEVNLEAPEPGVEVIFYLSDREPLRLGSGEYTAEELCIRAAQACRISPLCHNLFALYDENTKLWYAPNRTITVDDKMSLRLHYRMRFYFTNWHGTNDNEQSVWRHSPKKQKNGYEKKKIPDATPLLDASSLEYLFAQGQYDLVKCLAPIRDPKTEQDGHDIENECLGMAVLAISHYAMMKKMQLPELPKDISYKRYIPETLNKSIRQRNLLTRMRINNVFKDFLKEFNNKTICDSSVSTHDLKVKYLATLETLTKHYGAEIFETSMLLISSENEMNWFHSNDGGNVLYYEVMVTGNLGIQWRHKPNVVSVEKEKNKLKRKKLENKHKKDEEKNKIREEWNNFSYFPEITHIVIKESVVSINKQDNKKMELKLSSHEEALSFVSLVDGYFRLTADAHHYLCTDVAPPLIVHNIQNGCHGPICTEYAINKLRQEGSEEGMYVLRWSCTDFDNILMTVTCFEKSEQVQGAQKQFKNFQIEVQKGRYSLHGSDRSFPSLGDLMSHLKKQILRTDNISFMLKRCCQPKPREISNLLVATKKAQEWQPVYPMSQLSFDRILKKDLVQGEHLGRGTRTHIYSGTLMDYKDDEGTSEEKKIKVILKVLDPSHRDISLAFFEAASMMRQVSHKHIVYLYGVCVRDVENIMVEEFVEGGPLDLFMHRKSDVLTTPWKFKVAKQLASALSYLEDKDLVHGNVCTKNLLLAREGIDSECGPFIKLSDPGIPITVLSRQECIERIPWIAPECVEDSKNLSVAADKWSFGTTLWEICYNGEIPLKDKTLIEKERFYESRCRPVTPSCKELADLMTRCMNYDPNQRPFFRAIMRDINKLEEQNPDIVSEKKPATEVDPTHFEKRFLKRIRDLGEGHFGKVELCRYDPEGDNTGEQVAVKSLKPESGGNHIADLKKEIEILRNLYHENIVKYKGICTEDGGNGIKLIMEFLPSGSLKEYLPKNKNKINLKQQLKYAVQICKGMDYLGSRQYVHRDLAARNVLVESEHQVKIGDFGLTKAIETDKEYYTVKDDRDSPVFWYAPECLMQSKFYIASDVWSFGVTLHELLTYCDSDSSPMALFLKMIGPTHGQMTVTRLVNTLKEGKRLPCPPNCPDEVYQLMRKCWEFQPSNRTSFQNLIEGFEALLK

Rattus norvegicus [7] = test: Toxicity in rat assessed as drug tolerability up to 100 mg/kg; type: organism-based; conditions: in vivo
BaF3 = test: Antiproliferative activity against IL3-stimulated mouse BAF3 cells incubated for 72 hrs by [3H] thymidine incorporation assay; type: functional, cell-based
[8] = AUC (0 to 8 hrs) in mouse pharamcodynamic model at 30 mg/kg, po; type: ADME, organism-based; design: dose 30 mg/kg, time < 8 hr, route oral; conditions: in vivo
[9] = Half life in mouse at 2 mg/kg, iv and 10 mg/kg, po; type: ADME, organism-based; conditions: in vivo
Salmonella typhimurium = test: Mutagenicity in Salmonella typhimurium by Ames test; type: toxicity, organism-based; conditions: salmonella enterica subsp. enterica serovar typhimurium
Mus musculus [10] = test: Inhibition of JAK2 in mouse pharamcodynamic model assessed as reduction in STAT5 phosphorylation at 10 mg/kg, po measured up to 18 hrs; type: functional
Mus musculus [11] = test: Inhibition of JAK2 in mouse pharamcodynamic model assessed as reduction in STAT5 phosphorylation at 5 mg/kg, po measured after 8 hrs; type: functional
[12] = target: T2, Tyrosine-protein kinase JAK1; test: Inhibition of recombinant JAK1 (unknown origin) using 5-FAM-KKKKEEIYFFFG-OH substrate and ATP incubated for 180 mins by […] method
[13] = Clearance in cynomolgus monkey at 1 mg/kg, iv and 1 mg/kg, po; type: ADME, organism-based, Macaca fascicularis; conditions: in vivo
Mus musculus [14] = test: AUC (0 to 8 hrs) in mouse pharamcodynamic model at 10 mg/kg, po; type: ADME, organism-based; design: dose 10 mg/kg, time < 8 hr, route oral; conditions: in vivo
Mus musculus [15] = test: Inhibition of JAK2 in mouse pharamcodynamic model assessed as reduction in STAT5 phosphorylation at 30 mg/kg, po after 18 hrs; type: functional, organism-based
Rattus norvegicus [16] = test: Reduction in red blood cell mass in rat at 15 mg/kg/day for 2 weeks; type: functional, organism-based
hERG [17] = target: T1, hERG; test: Inhibition of human ERG at 30 uM by patch clamp assay
[18] = Half life in rat at 1 mg/kg, iv and 1 mg/kg, po; type: ADME, organism-based; conditions: in vivo
[19] = target: T3, Tyrosine-protein kinase JAK3 (Homo sapiens, UniProt P52333); test: Inhibition of recombinant JAK3 (unknown origin) using 5-FAM-KKKKEEIYFFFG-OH substrate and ATP incubated for 180 mins by […] method
T3 sequence (P52333 whole entry): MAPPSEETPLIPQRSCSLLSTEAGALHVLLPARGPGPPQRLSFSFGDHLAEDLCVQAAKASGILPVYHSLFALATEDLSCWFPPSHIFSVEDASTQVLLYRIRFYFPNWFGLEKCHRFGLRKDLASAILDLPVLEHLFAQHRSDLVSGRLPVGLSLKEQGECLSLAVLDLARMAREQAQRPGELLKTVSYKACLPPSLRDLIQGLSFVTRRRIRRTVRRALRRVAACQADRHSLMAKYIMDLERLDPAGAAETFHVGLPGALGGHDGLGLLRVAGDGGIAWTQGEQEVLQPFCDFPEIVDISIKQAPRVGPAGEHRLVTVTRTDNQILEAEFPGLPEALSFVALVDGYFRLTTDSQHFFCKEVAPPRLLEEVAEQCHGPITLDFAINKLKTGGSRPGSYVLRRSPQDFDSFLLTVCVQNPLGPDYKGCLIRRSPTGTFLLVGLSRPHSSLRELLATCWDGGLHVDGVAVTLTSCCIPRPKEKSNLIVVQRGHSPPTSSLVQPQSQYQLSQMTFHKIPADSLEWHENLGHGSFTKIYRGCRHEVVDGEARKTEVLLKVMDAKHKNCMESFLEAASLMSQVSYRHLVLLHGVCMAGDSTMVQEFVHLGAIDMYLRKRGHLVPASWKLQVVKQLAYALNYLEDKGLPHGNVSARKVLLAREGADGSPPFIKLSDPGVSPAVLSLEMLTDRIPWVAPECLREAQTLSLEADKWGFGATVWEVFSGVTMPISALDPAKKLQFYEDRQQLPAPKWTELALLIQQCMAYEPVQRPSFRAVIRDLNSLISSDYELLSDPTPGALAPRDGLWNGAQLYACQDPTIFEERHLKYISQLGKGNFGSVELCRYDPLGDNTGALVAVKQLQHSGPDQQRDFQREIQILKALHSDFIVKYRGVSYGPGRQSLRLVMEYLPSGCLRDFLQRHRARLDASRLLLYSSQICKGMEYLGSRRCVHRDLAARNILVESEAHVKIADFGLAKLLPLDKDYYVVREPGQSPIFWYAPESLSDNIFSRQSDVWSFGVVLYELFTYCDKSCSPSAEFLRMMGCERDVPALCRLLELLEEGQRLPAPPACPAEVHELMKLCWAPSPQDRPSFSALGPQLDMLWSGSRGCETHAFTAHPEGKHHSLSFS

[20] = Volume of distribution at steady state in cynomolgus monkey at 1 mg/kg, iv and 1 mg/kg, po; type: ADME, organism-based, Macaca fascicularis; conditions: in vivo, read-out: Vdss
[21] = Oral bioavailability in cynomolgus monkey at 1 mg/kg; type: ADME, organism-based, Macaca fascicularis; conditions: in vivo
[22] = Volume of distribution at steady state in mouse at 2 mg/kg, iv and 10 mg/kg, po; type: ADME, organism-based; conditions: in vivo, read-out: Vdss
[23] = Inhibition of CYP450 in human liver microsomes; type: ADME
[24] = AUC (0 to 72 hrs) in rat; type: ADME, organism-based; design: time < 72 hr; conditions: in vivo
[25] = Inhibition of calcium channel (unknown origin) by patch clamp assay; design: species or system Homo sapiens
Mus musculus [26] = test: Inhibition of JAK2 V617F mutant in mouse pharamcodynamic model expressing JAK2 V617F mutant assessed as reduction in STAT5 phosphorylation at 2 mg/kg, po measured up to 7 hrs; type: functional, organism-based
[27] = target: T3, Tyrosine-protein kinase JAK3; test: Binding affinity to JAK3 (unknown origin) assessed as dissociation constant
[28] = target: Tyrosine-protein kinase JAK2 (Homo sapiens, UniProt O60674); test: Binding affinity to JAK2 (unknown origin) assessed as dissociation constant
Chain of Tyrosine-protein kinase JAK2 (O60674 whole entry): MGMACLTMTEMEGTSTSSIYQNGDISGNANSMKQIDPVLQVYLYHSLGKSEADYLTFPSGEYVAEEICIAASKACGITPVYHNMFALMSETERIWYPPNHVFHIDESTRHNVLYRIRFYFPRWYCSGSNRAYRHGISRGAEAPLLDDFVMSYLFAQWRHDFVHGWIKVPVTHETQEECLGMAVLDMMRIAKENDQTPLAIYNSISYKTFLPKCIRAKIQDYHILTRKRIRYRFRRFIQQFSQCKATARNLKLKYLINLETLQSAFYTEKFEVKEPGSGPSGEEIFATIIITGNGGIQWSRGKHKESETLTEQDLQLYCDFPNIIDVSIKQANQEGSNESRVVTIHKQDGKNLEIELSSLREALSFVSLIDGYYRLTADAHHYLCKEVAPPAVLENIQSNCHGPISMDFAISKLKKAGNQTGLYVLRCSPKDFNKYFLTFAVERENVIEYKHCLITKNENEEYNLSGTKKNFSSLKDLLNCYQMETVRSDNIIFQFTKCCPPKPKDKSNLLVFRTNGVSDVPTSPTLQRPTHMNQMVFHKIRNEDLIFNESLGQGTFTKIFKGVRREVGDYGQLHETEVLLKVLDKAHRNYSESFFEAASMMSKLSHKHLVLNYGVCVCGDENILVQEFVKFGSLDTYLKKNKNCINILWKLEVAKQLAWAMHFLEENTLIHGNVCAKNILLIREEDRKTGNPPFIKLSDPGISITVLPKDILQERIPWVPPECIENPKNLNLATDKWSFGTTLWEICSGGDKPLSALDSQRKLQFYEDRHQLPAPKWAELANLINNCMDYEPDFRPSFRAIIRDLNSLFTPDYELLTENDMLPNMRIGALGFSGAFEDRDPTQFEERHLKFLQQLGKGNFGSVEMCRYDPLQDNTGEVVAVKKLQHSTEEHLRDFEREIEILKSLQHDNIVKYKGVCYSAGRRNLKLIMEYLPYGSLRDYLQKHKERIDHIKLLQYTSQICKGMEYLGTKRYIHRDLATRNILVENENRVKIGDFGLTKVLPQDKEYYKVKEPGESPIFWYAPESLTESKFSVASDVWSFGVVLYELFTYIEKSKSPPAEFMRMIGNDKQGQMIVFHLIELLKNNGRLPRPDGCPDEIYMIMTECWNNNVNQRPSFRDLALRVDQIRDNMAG

Compound `CCn1c(C(=O)N(C2CC2)C2CC2)cc2c3c(ncn3C)c(Nc3cc(C)n(C)n3)nc21` [BMS-911543] has an AUC(0-t) at 24 h [1] of 610 µM·h, an inhibition (Homo sapiens) of under 10% and an IC50 (Phosphodiesterase 4) of 5600 nM. For the same compound, the inhibition at 30 µM (hERG [2]) was 20%, the Papp [3] was 69.8 ×10⁻⁶ cm/s and the F (Mus musculus [4]) was 100%. For the same compound, the Vd [5] was 1.6 L/kg, the Kd [6] was 110 nM and the Activity (Rattus norvegicus [7]) was “Non-toxic”. The IC50 (BaF3) was 3500 nM, the AUC(0-t) at 8 h [8] was 109 µM·h and the half-life [9] was 5.1 h. For the same compound, the Activity (Salmonella typhimurium) was “Non-toxic”, the inhibition in vivo at 10 mg/kg (Mus musculus [10]) was 65% and the inhibition in vivo at 5 mg/kg (Mus musculus [11]) was 50%. It also gave an IC50 [12] of 75 nM, a clearance [13] of 5.3 mL/min/kg and an AUC (Mus musculus [14]) of 41 µM·h. For the same compound, the inhibition (Mus musculus [15]) was “Active”, the Activity (Rattus norvegicus [16]) was “Active” and the inhibition at 30 µM (hERG [17]) was 20%. It also gave a half-life [18] of 5 h, an IC50 [19] of 360 nM and a Vd [20] of 1.1 L/kg. It also gave a bioavailability [21] of 53%, a Vd [22] of 0.26 L/kg and an IC50 [23] of over 40000 nM. For the same compound, the AUC(0-t) at 72 h [24] was 11300 µM·h, the IC50 [25] was over 80000 nM and the inhibition (Mus musculus [26]) was “Active”. For the same compound, the Kd [27] was 360 nM and the Kd [28] was 0.48 nM.
